Test results from article PMC9609924, “In Vitro Characterization of Inhibitors for Lung A549 and Leukemia K562 Cell Lines from Fungal Transformation of Arecoline Supported by In Silico Docking to M3-mAChR and ADME Prediction” (Pharmaceuticals, 2022).
Counter-ions that a name gives are not always drawn. Like-named read-outs stand apart in the source and are kept apart here.

How the values were obtained:
[1] = tested on: non-small-cell lung cancer A549 cell line; assay: cells; settings: Homo sapiens, A549, 48 h, read-out: Cytotoxicity IC50 ± SD, Non-Small-Cell Lung Cancer A549
Procedure: (§1) Cell lines were obtained from the American Type Culture Collection (ATCC). Cells were cultured using Dulbecco’s Modified Eagle’s Medium (DMEM) (Invitrogen/Life Technologies, Waltham, MA, USA) supplemented with 10% fetal bovine serum (FBS, Hyclone, Logan, UT, USA), 10 µg/mL of insulin (Sigma Aldrich, St. Louis, MO, USA) and 1% mixture of penicillin and streptomycin. After incubation for 48 h with the isolated compounds, the viability of cells was measured using an MTT assay to determine the toxic concentration for each compound using the microplate reader according to the published procedures.

leukemia K562 cell line = assay: MTT cytotoxicity assay, leukemia K562; settings: Homo sapiens, K562, 48 h, read-out: Cytotoxicity IC50 ± SD, Leukemia Cancer Cell K562
Procedure: as §1

normal lung cell WI38 = assay: MTT cytotoxicity assay, normal lung cell WI38; format: cell-based; settings: for IC50: Homo sapiens, read-out: Normal Lung Cell Line WI38 IC50 ± SD
Procedure: (§2) The selectivity index identifies the selectivity of the tested compounds toward the cancer cell line and is calculated by dividing the IC50 against the normal cell line by the IC50 against the cancer cells.

[2] = tested on: normal blood cell PCS-800-016; assay: MTT cytotoxicity assay, normal blood cell PCS-800-016; format: cell-based; settings: for IC50: read-out: Normal Blood Cell PCS-800-016 IC50 ± SD
Procedure: as §2

[3] = tested on: leukemia cancer K562 cells; assay: Flow cytometry of DNA content, cell cycle distribution, K562; format: cell-based, human; settings: for %Pre-G1 (sub-G1) cells, cell cycle distribution: untreated control 1.68%; for %G2/M cells, cell cycle distribution: untreated control 12.59%; for %S cells, cell cycle distribution: untreated control 42.57%; for %G0-G1 cells, cell cycle distribution: untreated control 44.84%
Procedure: (§3) For cell cycle analysis, a propidium iodide flow cytometry kit (ab139418, Abcam, Cambridge, UK) was used. For apoptosis, we used an annexin V apoptosis kit, which is composed of annexin V-FITC (fluorescein isothiocyanate), 1X binding buffer, and propidium iodide. Detection was conducted by measuring DNA content using a flow cytometer.

[4] = tested on: leukemia cancer K562 cells; assay: Annexin V-FITC/propidium iodide apoptosis detection, K562; format: cell-based, human; settings: for Late apoptosis: untreated control 0.04%; for Early apoptosis: untreated control 0.37%; for Necrosis: untreated control 1.27%; for Total cell death: untreated control 1.68%
Procedure: as §3

[5] = tested on: non-small-cell lung cancer A549 cells; assay: Flow cytometry of DNA content, cell cycle distribution, A549; format: cell-based
Procedure: (§4) Furthermore, compound 1 induced early and late apoptosis and necrosis (5.09%, 10.38%, and 13.14%, respectively) compared to the untreated cells (0.29%, 0.18%, and 0.79, respectively).
as §3

[6] = tested on: non-small-cell lung cancer A549 cells; assay: Annexin V-FITC/propidium iodide apoptosis detection, A549; format: cell-based
Procedure: as §4, §3

## COC(=O)C1=CCCN(C)C1 [Arecoline hydrobromide, reference compound]
[1]
  IC50: 11.7 ± 0.71 µM
Leukemia K562 cell line
  IC50: 15.3 ± 1.08 µM

## O=C(O)c1cccnc1 [Compound 5, Pyridine-3-carboxylic acid]
[1]
  IC50: 3.29 ± 0.2 µM
Leukemia K562 cell line
  IC50: 2.15 ± 0.15 µM
Normal lung cell WI38; WI-38, MTT, 48 h incubation
  IC50: 13.9 ± 0.69 µM
[2]; MTT, 48 h incubation
  IC50: 20.2 ± 1.01 µM
[3]
  Phase of cell cycle arrest: S phase
  %Pre-G1 (sub-G1) cells, cell cycle distribution: 31.74%
  %G2/M cells, cell cycle distribution: 10.68%
  %S cells, cell cycle distribution: 52.91%
  %G0-G1 cells, cell cycle distribution: 36.41%
[4]
  Late apoptosis: 11.74%
  Early apoptosis: 2.94%
  Necrosis: 17.06%
  Total cell death: 31.74%

## CN1CCC=C(C(=O)O)C1 [Compound 4, 1-Methyl-1,2,5,6-tetrahydropyridine-3-carboxylic acid]
[1]
  IC50: 90.9 ± 0.59 µM
Leukemia K562 cell line
  IC50: 67.3 ± 0.53 µM

## CN[C@@H]1C[C@H]2O[C@@](C)([C@@H]1OC)n1c3ccccc3c3c4c(c5c6ccccc6n2c5c31)C(=O)NC4 [Staurosporine, reference compound]
Leukemia K562 cell line
  IC50: 5.07 ± 0.36 µM

## C[N+]1([O-])CCC(O)CC1 (stereo not drawn) [Compound 2, 4-Hydroxy-1-methylpiperidine 1-oxide]
[1]
  IC50: > 100 µM
Leukemia K562 cell line
  IC50: > 100 µM

## CN1CCC(O)CC1 [Compound 1, 1-Methylpiperidin-4-ol]
[1]
  IC50: 3.08 ± 0.19 µM
Leukemia K562 cell line
  IC50: 1.56 ± 0.11 µM
Normal lung cell WI38; WI-38, MTT, 48 h incubation
  IC50: 18.3 ± 0.91 µM
Normal lung cell WI38; IC50 against normal WI38 divided by IC50 against A549
  SI (Lung), selectivity index: 5.93
[2]; IC50 against normal PCS-800-016 divided by IC50 against K562
  SI (Blood Cell), selectivity index: 6.32
[2]; MTT, 48 h incubation
  IC50: 9.87 ± 0.49 µM
[5]
  Phase of cell cycle arrest: G2/M phase
[5]; untreated control 1.26%
  %Pre-G1 (sub-G1) cells, cell cycle distribution: 28.61%
[5]; untreated control 8.09%
  %G2/M cells, cell cycle distribution: 24.88%
[5]; untreated control 35.85%
  %S cells, cell cycle distribution: 31.01%
[5]; untreated control 56.06%
  %G0-G1 cells, cell cycle distribution: 44.11%
[6]; A549, versus untreated cells
  Fold increase of early apoptosis than control: 17.55 fold
  Fold increase of late apoptosis than control: 57.67 fold
  Fold increase of necrosis than control: 16.63 fold
  Fold increase of total cell death than control: 22.71 fold
[6]; A549, untreated control 0.18%
  Late apoptosis: 10.38%
[6]; A549, untreated control 0.29%
  Early apoptosis: 5.09%
[6]; A549, untreated control 0.79%
  Necrosis: 13.14%
[6]; A549, untreated control 1.26%
  Total cell death: 28.61%

## O=C(O)C1CCCNC1 [Compound 3, D-piperidine-3-carboxylic acid]
[1]
  IC50: 7.33 ± 0.45 µM
Leukemia K562 cell line
  IC50: 3.33 ± 0.24 µM
Normal lung cell WI38; WI-38, 48 h
  IC50: 26.6 ± 1.33 µM
[2]; 48 h
  IC50: 37.9 ± 1.89 µM
[3]
  Phase of cell cycle arrest: S phase
  %Pre-G1 (sub-G1) cells, cell cycle distribution: 43.22%
  %G2/M cells, cell cycle distribution: 7.48%
  %S cells, cell cycle distribution: 57.23%
  %G0-G1 cells, cell cycle distribution: 35.29%
[4]
  Late apoptosis: 30.35%
  Early apoptosis: 2.33%
  Necrosis: 10.54%
  Total cell death: 43.22%

## COc1cccc2c1C(=O)c1c(O)c3c(c(O)c1C2=O)C[C@@](O)(C(=O)CO)C[C@@H]3O[C@H]1C[C@H](N)[C@H](O)[C@H](C)O1 [Doxorubicin, reference compound]
[1]
  IC50: 5.05 ± 0.13 µM
Leukemia K562 cell line
  IC50: 6.94 ± 0.21 µM
